pIC50: −log10 of the molar value.
Biological target: CDK2/Cyclin E1 (Homo sapiens (Human), UniProt P24941)
Test: CDK2/Cyclin E1 HTRF enzyme activity assay
Format: biochemical
Details: 1 mM ATP
Procedure: Assays are conducted in white 384-well polystyrene plates in a final reaction volume of 8 μL. […] HTRF signals are read after 1 hour at room temperature on a PHERAstar FS plate reader (BMG Labtech). Data is analyzed with IDBS XLFit and GraphPad Prism 5.0 software using a three or four parameter dose response curve to determine IC50 for each compound.

Compound | pIC50
CC(C)(O)Cn1cc(-c2nc(NC3CCN(S(=O)(=O)C4CC4)CC3)ncc2Cl)cn1 [Example 56, 1-(4-(5-Chloro-2-((1-(cyclopropylsulfonyl)piperidin-4-yl)amino)pyrimidin-4-yl)-1H-pyrazol-1-yl)-2-methylpropan-2-ol] | > 7.30
CC(C)(O)Cn1cc(-c2nc(N[C@H]3CCN(S(=O)(=O)C4CC4)C[C@H]3F)ncc2C(F)(F)F)cn1 [Example 57, 1-(4-(2-(((3R,4S)-1-(Cyclopropylsulfonyl)-3-fluoropiperidin-4-yl)amino)-5-(trifluoromethyl)pyrimidin-4-yl)-1H-pyrazol-1-yl)-2-methylpropan-2-ol] | > 7.30
CC(C)(O)Cn1cc(-c2nc(N[C@H]3CCN(S(C)(=O)=O)C[C@H]3F)ncc2C(F)(F)F)cn1 [Example 58, 1-(4-(2-(((3R,4S)-3-Fluoro-1-(methylsulfonyl)piperidin-4-yl)amino)-5-(trifluoromethyl)pyrimidin-4-yl)-1H-pyrazol-1-yl)-2-methylpropan-2-ol] | > 7.30
C[C@@H]1CN(S(=O)(=O)C2CC2)CC[C@@H]1Nc1ncc(C(F)(F)F)c(-c2cnn(CC(C)(C)O)c2)n1 [Example 59, 1-(4-(2-(((3R,4S)-1-(Cyclopropylsulfonyl)-3-methylpiperidin-4-yl)amino)-5-(trifluoromethyl)pyrimidin-4-yl)-1H-pyrazol-1-yl)-2-methylpropan-2-ol] | > 7.30
C[C@@H]1CN(S(=O)(=O)c2cnn(C)c2)CC[C@@H]1Nc1ncc(C(F)(F)F)c(-c2cnn(CC(C)(C)O)c2)n1 [Example 60, 2-Methyl-1-(4-(2-(((3R,4S)-3-methyl-1-((1-methyl-1H-pyrazol-4-yl)sulfonyl)piperidin-4-yl)amino)-5-(trifluoromethyl)pyrimidin-4-yl)-1H-pyrazol-1-yl)propan-2-ol] | > 7.30
C[C@@H]1CN(S(=O)(=O)c2cn(C)cn2)CC[C@@H]1Nc1ncc(C(F)(F)F)c(-c2cnn(CC(C)(C)O)c2)n1 [Example 61, 2-Methyl-1-(4-(2-(((3R,4S)-3-methyl-1-((1-methyl-1H-imidazol-4-yl)sulfonyl)piperidin-4-yl)amino)-5-(trifluoromethyl)pyrimidin-4-yl)-1H-pyrazol-1-yl)propan-2-ol] | > 7.30
C[C@@H]1CN(S(=O)(=O)c2ccccn2)CC[C@@H]1Nc1ncc(C(F)(F)F)c(-c2cnn(CC(C)(C)O)c2)n1 [Example 62, 2-Methyl-1-(4-(2-(((3R,4S)-3-methyl-1-(pyridin-2-ylsulfonyl)piperidin-4-yl)amino)-5-(trifluoromethyl)pyrimidin-4-yl)-1H-pyrazol-1-yl)propan-2-ol] | > 7.30
CC(C)(O)Cn1cc(-c2nc(NC3CCN(S(=O)(=O)CCCN4CCOCC4)CC3)ncc2C(F)(F)F)cn1 [Example 63, 2-Methyl-1-(4-(2-((1-((3-morpholinopropyl)sulfonyl)piperidin-4-yl)amino)-5-(trifluoromethyl)pyrimidin-4-yl)-1H-pyrazol-1-yl)propan-2-ol] | > 7.30
CCN(CC)CCCS(=O)(=O)N1CCC(Nc2ncc(C(F)(F)F)c(-c3cnn(CC(C)(C)O)c3)n2)CC1 [Example 64, 1-(4-(2-((1-((3-(Diethylamino)propyl)sulfonyl)piperidin-4-yl)amino)-5-(trifluoromethyl)pyrimidin-4-yl)-1H-pyrazol-1-yl)-2-methylpropan-2-ol] | > 7.30
CC(C)(O)Cn1cc(-c2nc(NC3CCN(S(=O)(=O)CCCN4CCCC4)CC3)ncc2C(F)(F)F)cn1 [Example 66, 2-Methyl-1-(4-(2-((1-((3-(pyrrolidin-1-yl)propyl)sulfonyl)piperidin-4-yl)amino)-5-(trifluoromethyl)pyrimidin-4-yl)-1H-pyrazol-1-yl)propan-2-ol] | > 7.30
CC(C)(O)Cn1cc(-c2nc(NC3CCN(S(=O)(=O)CCCN4CCCCC4)CC3)ncc2C(F)(F)F)cn1 [Example 67, 2-Methyl-1-(4-(2-((1-((3-(piperidin-1-yl)propyl)sulfonyl)piperidin-4-yl)amino)-5-(trifluoromethyl)pyrimidin-4-yl)-1H-pyrazol-1-yl)propan-2-ol] | > 7.30
CN1CCN(CCCS(=O)(=O)N2CCC(Nc3ncc(C(F)(F)F)c(-c4cnn(CC(C)(C)O)c4)n3)CC2)CC1 [Example 68, 2-Methyl-1-(4-(2-((1-((3-(4-methylpiperazin-1-yl)propyl)sulfonyl)piperidin-4-yl)amino)-5-(trifluoromethyl)pyrimidin-4-yl)-1H-pyrazol-1-yl)propan-2-ol] | > 7.30
CC(C)(O)Cn1cc(-c2nc(NC3CCN(S(=O)(=O)CCCN4CCNC(=O)C4)CC3)ncc2C(F)(F)F)cn1 [Example 69, 4-(3-((4-((4-(1-(2-Hydroxy-2-methylpropyl)-1H-pyrazol-4-yl)-5-(trifluoromethyl)pyrimidin-2-yl)amino)piperidin-1-yl)sulfonyl)propyl)piperazin-2-one] | > 7.30
CN1CCN(CCCS(=O)(=O)N2CCC(Nc3ncc(C(F)(F)F)c(-c4cnn(CC(C)(C)O)c4)n3)CC2)CC1=O [Example 70, 4-(3-((4-((4-(1-(2-Hydroxy-2-methylpropyl)-1H-pyrazol-4-yl)-5-(trifluoromethyl)pyrimidin-2-yl)amino)piperidin-1-yl)sulfonyl)propyl)-1-methylpiperazin-2-one] | > 7.30
C[C@H]1COCCN1CCCS(=O)(=O)N1CCC(Nc2ncc(C(F)(F)F)c(-c3cnn(CC(C)(C)O)c3)n2)CC1 [Example 71, (S)-2-Methyl-1-(4-(2-((1-((3-(3-methylmorpholino)propyl)sulfonyl)piperidin-4-yl)amino)-5-(trifluoromethyl)pyrimidin-4-yl)-1H-pyrazol-1-yl)propan-2-ol] | > 7.30
C[C@@H]1COCCN1CCCS(=O)(=O)N1CCC(Nc2ncc(C(F)(F)F)c(-c3cnn(CC(C)(C)O)c3)n2)CC1 [Example 72, (R)-2-Methyl-1-(4-(2-((1-((3-(3-methylmorpholino)propyl)sulfonyl)piperidin-4-yl)amino)-5-(trifluoromethyl)pyrimidin-4-yl)-1H-pyrazol-1-yl)propan-2-ol] | > 7.30
CC(C)(O)Cn1cc(-c2nc(NC3CCN(S(=O)(=O)CCCN4CCOCC45CC5)CC3)ncc2C(F)(F)F)cn1 [Example 73, 1-(4-(2-((1-((3-(7-Oxa-4-azaspiro[2.5]octan-4-yl)propyl)sulfonyl)piperidin-4-yl)amino)-5-(trifluoromethyl)pyrimidin-4-yl)-1H-pyrazol-1-yl)-2-methylpropan-2-ol] | > 7.30
COC[C@H]1CCN(CCCS(=O)(=O)N2CCC(Nc3ncc(C(F)(F)F)c(-c4cnn(CC(C)(C)O)c4)n3)CC2)C1 [Example 74, (S)-1-(4-(2-((1-((3-(3-(Methoxymethyl)pyrrolidin-1-yl)propyl)sulfonyl)piperidin-4-yl)amino)-5-(trifluoromethyl)pyrimidin-4-yl)-1H-pyrazol-1-yl)-2-methylpropan-2-ol] | > 7.30
CC(C)(O)Cn1cc(-c2nc(NC3CCN(S(=O)(=O)CCCN4CCC(O)CC4)CC3)ncc2C(F)(F)F)cn1 [Example 75, 1-(3-((4-((4-(1-(2-Hydroxy-2-methylpropyl)-1H-pyrazol-4-yl)-5-(trifluoromethyl)pyrimidin-2-yl)amino)piperidin-1-yl)sulfonyl)propyl)piperidin-4-ol] | > 7.30

— US11472791B2 (Incyte Corporation, priority 2019, dated 2022)
